Experiments:
[1] = target: human phosphodiesterase III (PDE III); conditions: cited from earlier work
[2] = test system: erythroid or myelomonocytic differentiation; conditions: stimulated by erythropoietin or granulocyte-macrophage colony-stimulating factor; cited from earlier work
[3] = human, in vivo; cited from earlier work
[4] = test system: human megakaryocytopoiesis; conditions: cited from earlier work
[5] = pharmacokinetics of anagrelide and its metabolite in patients; assay type: in vivo, human; conditions: typical exposures, greater than anagrelide
[6] = test system: human phosphodiesterase III (PDE III); experiment: PDE III inhibition; assay type: biochemical; conditions: more potent than anagrelide

Row | Compound | IC50 [1] [nM] | effect on erythroid or myelomonocytic differentiation [2] | first pass effect [3] [%] | typical half-life [3] [h] | IC50 ([4]; in vitro, TPO-induced, read-out: estimated IC50 for inhibition of TPO-induced megakaryocytopoiesis) [nM] | exposure in vivo relative to parent drug [5] | potency as PDE III inhibitor relative to anagrelide [6] | potency in inhibition of megakaryocytopoiesis relative to parent drug ([4]; compared with anagrelide)
1 | Cc1[nH]c(=O)c(C#N)cc1-c1ccncc1 [milrinone] | 170 to 350 | – | – | – | – | – | – | –
2 | O=C1CN2Cc3c(ccc(Cl)c3Cl)N=C2N1 [Anagrelide, 6,7-dichloro-1,5-dihydroimidazo[2,1-b]-quinazolin-2(3H)-one] | ~29 | does not affect | > 50 | 1.5 | ~26 | – | – | –
3 | O=C1NC2=Nc3ccc(Cl)c(Cl)c3CN2C1O (stereo not shown) [3-hydroxyanagrelide] | – | – | – | 2.5 | – | 2-3 fold | over 40 fold | no more potent than the parent drug

Source: patent publication US20110065714A1, “SUBSTITUTED QUINAZOLINES” (Shire LLC, priority 2008, published 2011)
